Experiments:
Experiment in all cases: relative viability (nuclei count vs DMSO), 5 days (fraction); higher = more cells survive
[1] = compound: CCN1C(=O)C2=CC(=C(N=C2N(C1=O)C3CC3)N)C(=O)N + CC(=O)Nc1cccc(-n2c(=O)n(C3CC3)c(=O)c3c(Nc4ccc(I)cc4F)n(C)c(=O)c(C)c32)c1 [Trametinib] (partner 0.02 µM)
Outline: (§1)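 Nuclei were stained with Hoechst during a one-step fixation (final 0.05% Triton X-100, 1% formaldehyde, 1 ug/ml Hoechst) carried out 5 days after dosing, then counted on 4× images. The cells, lung cancer lines in 1536-well plates, had been dosed by pin tool the day after seeding with one drug alone or a fixed anchor-drug dose plus five library-drug doses (not always all listed) in √10 steps. Relative viability is the nuclei count in treated wells divided by that in vehicle wells, and each value is the median of duplicate plates.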

[2] = compound: CCN1C(=O)C2=CC(=C(N=C2N(C1=O)C3CC3)N)C(=O)N + CS(=O)(=O)N1CCN(Cc2cc3nc(-c4cccc5[nH]ncc45)nc(N4CCOCC4)c3s2)CC1 [Pictilisib] (partner 1 µM)
Outline: as §1

[3] = compound: CCN1C(=O)C2=CC(=C(N=C2N(C1=O)C3CC3)N)C(=O)N + C[C@@H](Oc1cc(-c2cnn(C3CCNCC3)c2)cnc1N)c1c(Cl)ccc(F)c1Cl [Crizotinib] (partner 1 µM)
Outline: as §1

[4] = compound: CCN1C(=O)C2=CC(=C(N=C2N(C1=O)C3CC3)N)C(=O)N + NC(=O)Nc1cc(-c2cccc(F)c2)sc1C(=O)N[C@H]1CCCNC1 [AZD7762] (partner 0.2 µM)
Outline: as §1

[5] = compound: CCN1C(=O)C2=CC(=C(N=C2N(C1=O)C3CC3)N)C(=O)N + O=C(c1cc(Cc2n[nH]c(=O)c3ccccc23)ccc1F)N1CCN(C(=O)C2CC2)CC1 [Olaparib] (partner 8 µM)
Outline: as §1

HCC-78
relative viability ([1]; first compound 0.253 µM): 0.706 | relative viability ([1]; first compound 0.8 µM): 0.733 | relative viability ([1]; first compound 2.53 µM): 0.812 | relative viability ([1]; first compound 8 µM): 0.788 | relative viability ([2]; first compound 0.253 µM): 0.223 | relative viability ([2]; first compound 0.8 µM): 0.173 | relative viability ([2]; first compound 2.53 µM): 0.201 | relative viability ([2]; first compound 8 µM): 0.205 | relative viability ([3]; first compound 0.253 µM): 0.349 | relative viability ([3]; first compound 0.8 µM): 0.327 | relative viability ([3]; first compound 2.53 µM): 0.292 | relative viability ([3]; first compound 8 µM): 0.379 | relative viability ([4]; first compound 0.253 µM): 0.56 | relative viability ([4]; first compound 0.8 µM): 0.592 | relative viability ([4]; first compound 2.53 µM): 0.626 | relative viability ([4]; first compound 8 µM): 0.735 | relative viability ([5]; first compound 0.253 µM): 0.807 | relative viability ([5]; first compound 0.8 µM): 0.902 | relative viability ([5]; first compound 2.53 µM): 0.691 | relative viability ([5]; first compound 8 µM): 0.959

LOU-NH91
relative viability ([1]; first compound 0.253 µM): 0.791 | relative viability ([1]; first compound 0.8 µM): 0.76 | relative viability ([1]; first compound 2.53 µM): 0.772 | relative viability ([1]; first compound 8 µM): 0.772 | relative viability ([2]; first compound 0.253 µM): 0.509 | relative viability ([2]; first compound 0.8 µM): 0.516 | relative viability ([2]; first compound 2.53 µM): 0.541 | relative viability ([2]; first compound 8 µM): 0.538 | relative viability ([3]; first compound 0.253 µM): 0.705 | relative viability ([3]; first compound 0.8 µM): 0.718 | relative viability ([3]; first compound 2.53 µM): 0.767 | relative viability ([3]; first compound 8 µM): 0.707 | relative viability ([4]; first compound 0.253 µM): 0.786 | relative viability ([4]; first compound 0.8 µM): 0.73 | relative viability ([4]; first compound 2.53 µM): 0.725 | relative viability ([4]; first compound 8 µM): 0.749 | relative viability ([5]; first compound 0.253 µM): 0.913 | relative viability ([5]; first compound 0.8 µM): 0.924 | relative viability ([5]; first compound 2.53 µM): 0.92 | relative viability ([5]; first compound 8 µM): 0.946

NCI-H1734
relative viability ([1]; first compound 0.253 µM): 0.742 | relative viability ([1]; first compound 0.8 µM): 0.593 | relative viability ([1]; first compound 2.53 µM): 0.609 | relative viability ([1]; first compound 8 µM): 0.74 | relative viability ([2]; first compound 0.253 µM): 0.456 | relative viability ([2]; first compound 0.8 µM): 0.495 | relative viability ([2]; first compound 2.53 µM): 0.44 | relative viability ([2]; first compound 8 µM): 0.473 | relative viability ([3]; first compound 0.253 µM): 0.716 | relative viability ([3]; first compound 0.8 µM): 0.635 | relative viability ([3]; first compound 2.53 µM): 0.618 | relative viability ([3]; first compound 8 µM): 0.769 | relative viability ([4]; first compound 0.253 µM): 0.514 | relative viability ([4]; first compound 0.8 µM): 0.543 | relative viability ([4]; first compound 2.53 µM): 0.51 | relative viability ([4]; first compound 8 µM): 0.566 | relative viability ([5]; first compound 0.253 µM): 0.672 | relative viability ([5]; first compound 0.8 µM): 0.695 | relative viability ([5]; first compound 2.53 µM): 0.579 | relative viability ([5]; first compound 8 µM): 0.675

NCI-H647
relative viability ([1]; first compound 0.253 µM): 0.521 | relative viability ([1]; first compound 0.8 µM): 0.442 | relative viability ([1]; first compound 2.53 µM): 0.418 | relative viability ([1]; first compound 8 µM): 0.389 | relative viability ([2]; first compound 0.253 µM): 0.424 | relative viability ([2]; first compound 2.53 µM): 0.432 | relative viability ([2]; first compound 8 µM): 0.462 | relative viability ([3]; first compound 0.253 µM): 0.869 | relative viability ([3]; first compound 0.8 µM): 0.906 | relative viability ([3]; first compound 2.53 µM): 0.948 | relative viability ([3]; first compound 8 µM): 1.26 | relative viability ([4]; first compound 0.253 µM): 0.537 | relative viability ([4]; first compound 2.53 µM): 0.547 | relative viability ([4]; first compound 8 µM): 0.581 | relative viability ([5]; first compound 0.253 µM): 0.56 | relative viability ([5]; first compound 0.8 µM): 0.484 | relative viability ([5]; first compound 2.53 µM): 0.586 | relative viability ([5]; first compound 8 µM): 0.741

NCI-H1755
relative viability ([1]; first compound 0.253 µM): 0.771 | relative viability ([1]; first compound 0.8 µM): 0.762 | relative viability ([1]; first compound 2.53 µM): 0.746 | relative viability ([1]; first compound 8 µM): 0.716 | relative viability ([2]; first compound 0.253 µM): 0.431 | relative viability ([2]; first compound 0.8 µM): 0.405 | relative viability ([2]; first compound 2.53 µM): 0.452 | relative viability ([2]; first compound 8 µM): 0.488 | relative viability ([3]; first compound 0.253 µM): 0.895 | relative viability ([3]; first compound 0.8 µM): 0.865 | relative viability ([3]; first compound 2.53 µM): 0.875 | relative viability ([3]; first compound 8 µM): 0.918 | relative viability ([4]; first compound 0.253 µM): 0.522 | relative viability ([4]; first compound 0.8 µM): 0.496 | relative viability ([4]; first compound 2.53 µM): 0.408 | relative viability ([4]; first compound 8 µM): 0.533 | relative viability ([5]; first compound 0.253 µM): 0.908 | relative viability ([5]; first compound 0.8 µM): 0.872 | relative viability ([5]; first compound 2.53 µM): 0.831 | relative viability ([5]; first compound 8 µM): 0.843

NCI-H650
relative viability ([1]; first compound 0.253 µM): 0.994 | relative viability ([1]; first compound 0.8 µM): 0.929 | relative viability ([1]; first compound 2.53 µM): 0.905 | relative viability ([1]; first compound 8 µM): 1.04 | relative viability ([2]; first compound 0.253 µM): 0.997 | relative viability ([2]; first compound 0.8 µM): 0.922 | relative viability ([2]; first compound 2.53 µM): 0.684 | relative viability ([2]; first compound 8 µM): 0.893 | relative viability ([3]; first compound 0.253 µM): 0.832 | relative viability ([3]; first compound 0.8 µM): 0.721 | relative viability ([3]; first compound 2.53 µM): 0.615 | relative viability ([3]; first compound 8 µM): 0.716 | relative viability ([4]; first compound 0.253 µM): 1.14 | relative viability ([4]; first compound 0.8 µM): 0.781 | relative viability ([4]; first compound 2.53 µM): 0.999 | relative viability ([4]; first compound 8 µM): 1.3 | relative viability ([5]; first compound 0.253 µM): 0.437 | relative viability ([5]; first compound 0.8 µM): 0.39 | relative viability ([5]; first compound 2.53 µM): 0.296 | relative viability ([5]; first compound 8 µM): 0.445

NCI-H596
relative viability ([1]; first compound 0.253 µM): 0.673 | relative viability ([1]; first compound 0.8 µM): 0.742 | relative viability ([1]; first compound 2.53 µM): 0.787 | relative viability ([1]; first compound 8 µM): 0.907 | relative viability ([2]; first compound 0.253 µM): 0.449 | relative viability ([2]; first compound 0.8 µM): 0.36 | relative viability ([2]; first compound 2.53 µM): 0.454 | relative viability ([2]; first compound 8 µM): 0.403 | relative viability ([3]; first compound 0.253 µM): 1.05 | relative viability ([3]; first compound 0.8 µM): 0.984 | relative viability ([3]; first compound 2.53 µM): 1.08 | relative viability ([3]; first compound 8 µM): 0.948 | relative viability ([4]; first compound 0.253 µM): 1.12 | relative viability ([4]; first compound 0.8 µM): 0.998 | relative viability ([4]; first compound 2.53 µM): 1.26 | relative viability ([4]; first compound 8 µM): 1.24 | relative viability ([5]; first compound 0.253 µM): 0.662 | relative viability ([5]; first compound 0.8 µM): 0.72 | relative viability ([5]; first compound 2.53 µM): 0.767 | relative viability ([5]; first compound 8 µM): 0.693

HCC-15
relative viability ([1]; first compound 0.253 µM): 0.412 | relative viability ([1]; first compound 0.8 µM): 0.382 | relative viability ([1]; first compound 2.53 µM): 0.369 | relative viability ([1]; first compound 8 µM): 0.429 | relative viability ([2]; first compound 0.253 µM): 0.699 | relative viability ([2]; first compound 0.8 µM): 0.79 | relative viability ([2]; first compound 2.53 µM): 0.793 | relative viability ([2]; first compound 8 µM): 0.801 | relative viability ([3]; first compound 0.253 µM): 0.789 | relative viability ([3]; first compound 0.8 µM): 0.829 | relative viability ([3]; first compound 2.53 µM): 0.909 | relative viability ([3]; first compound 8 µM): 0.872 | relative viability ([4]; first compound 0.253 µM): 1.18 | relative viability ([4]; first compound 0.8 µM): 1.45 | relative viability ([4]; first compound 2.53 µM): 1.18 | relative viability ([4]; first compound 8 µM): 1.31 | relative viability ([5]; first compound 0.253 µM): 0.749 | relative viability ([5]; first compound 0.8 µM): 0.774 | relative viability ([5]; first compound 2.53 µM): 0.651 | relative viability ([5]; first compound 8 µM): 0.725
